The record followed here is patent US20240239861A1, “GLUCAGON-RECEPTOR SELECTIVE POLYPEPTIDES AND METHODS OF USE THEREOF” (i2O Therapeutics, Inc., priority 2016, published 2024).

Where a SMILES comes first, the peptide text is derived from it. [ ]: non-standard residue; d: D form. Aib = CC(C)(N)C(=O)O

By EC50 is commonly meant the concentration giving half of the maximal effect. Low values mean a more potent agent, high ones a less potent agent. What is called clearance is a measure of how efficiently the substance is removed, as volume per time. A high value points to a high capacity for elimination.

Series [1] concerns the target human GLP-1R (Homo sapiens, UniProt P43220). The series can be described thus: Peptide-receptor mediated cAMP accumulation (LANCE Ultra cAMP) in CHO-K1 cells transfected with human GLP-1R. The class given is cell-based. To be noted: hGLP1 pEC50 (cAMP mean (n = 3): 11 point curve starting at 1 nM, Table 3). (In general: cAMP levels reflect the balance of adenylyl cyclase and phosphodiesterase activity.)

Series [2] is described as follows: in vivo. To be noted: male, rat.

Sequence of human GLP-1R (P43220 24-463): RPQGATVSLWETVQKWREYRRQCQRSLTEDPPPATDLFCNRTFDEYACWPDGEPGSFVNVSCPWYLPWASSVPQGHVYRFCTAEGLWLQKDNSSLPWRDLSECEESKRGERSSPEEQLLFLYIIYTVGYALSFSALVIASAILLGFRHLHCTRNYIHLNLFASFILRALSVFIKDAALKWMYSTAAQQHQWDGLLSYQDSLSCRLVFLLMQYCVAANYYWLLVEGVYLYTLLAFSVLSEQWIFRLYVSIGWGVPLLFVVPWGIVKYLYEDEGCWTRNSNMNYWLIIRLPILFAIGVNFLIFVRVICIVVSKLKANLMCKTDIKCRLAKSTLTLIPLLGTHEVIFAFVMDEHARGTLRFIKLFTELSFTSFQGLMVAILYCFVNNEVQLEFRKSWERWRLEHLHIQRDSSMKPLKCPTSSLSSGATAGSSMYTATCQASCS

In turn, `CC(C)C[C@H](NC(=O)[C@H](Cc1ccc(O)cc1)NC(=O)[C@H](CCCCN)NC(=O)[C@H](CO)NC(=O)[C@H](Cc1ccc(O)cc1)NC(=O)[C@H](CC(=O)O)NC(=O)[C@H](CO)NC(=O)[C@@H](NC(=O)[C@H](Cc1ccccc1)NC(=O)[C@@H](NC(=O)CNC(=O)[C@H](Cc1c[nH]cn1)NC(=O)[C@H](CO)NC(=O)[C@@H](N)Cc1ccc(O)cc1)[C@@H](C)O)[C@@H](C)O)C(=O)N[C@@H](CC(=O)O)C(=O)NC(C)(C)C(=O)N[C@@H](CCCCN)C(=O)N[C@@H](CCCNC(=N)N)C(=O)N[C@@H](C)C(=O)N[C@@H](CCC(N)=O)C(=O)N[C@@H](CCC(=O)O)C(=O)N[C@@H](Cc1ccccc1)C(=O)N[C@H](C(=O)NC(C)(C)C(=O)N[C@@H](Cc1c[nH]c2ccccc12)C(=O)N[C@@H](CC(C)C)C(=O)N[C@@H](CCC(=O)O)C(=O)N[C@@H](CC(=O)O)C(=O)N[C@@H](CCC(=O)O)C(=O)N1CCC[C@H]1C(=O)N[C@@H](CCCCN)C(=O)N[C@@H](CO)C(=O)N[C@@H](CCCCN)C(=O)N[C@@H](CO)C(=O)N1CCC[C@H]1C(=O)N1CCC[C@H]1C(=O)N1CCC[C@H]1C(=O)N[C@@H](CO)C(=O)O)C(C)C` [Compound A58] (H-YSHGTFTSDYSKYLD[Aib]KRAQEFV[Aib]WLEDEPKSKSPPPS-OH; N-terminus assumed) came in with an EC50 in series [1] greater than 1 nM. Also, the clearance in series [2] amounted to 37.7 mL/min/kg.
For `CC(C)C[C@H](NC(=O)[C@H](Cc1ccc(O)cc1)NC(=O)[C@H](CCCCN)NC(=O)[C@H](CO)NC(=O)[C@H](Cc1ccc(O)cc1)NC(=O)[C@H](CC(=O)O)NC(=O)[C@H](CO)NC(=O)[C@@H](NC(=O)[C@H](Cc1ccccc1)NC(=O)[C@@H](NC(=O)CNC(=O)[C@H](CCC(N)=O)NC(=O)[C@H](CO)NC(=O)[C@@H](N)Cc1ccc(O)cc1)[C@@H](C)O)[C@@H](C)O)C(=O)N[C@@H](CC(=O)O)C(=O)NC(C)(C)C(=O)N[C@@H](CCCCN)C(=O)N[C@@H](CCCNC(=N)N)C(=O)N[C@@H](C)C(=O)N[C@@H](CCC(N)=O)C(=O)N[C@@H](CCC(=O)O)C(=O)N[C@@H](Cc1ccccc1)C(=O)N[C@H](C(=O)NC(C)(C)C(=O)N[C@@H](Cc1c[nH]c2ccccc12)C(=O)N[C@@H](CC(C)C)C(=O)N[C@@H](CCC(=O)O)C(=O)N[C@@H](CC(=O)O)C(=O)N[C@@H](CCC(=O)O)C(=O)N1CCC[C@H]1C(=O)N[C@@H](CO)C(=O)N[C@@H](CO)C(=O)NCC(=O)N[C@@H](C)C(=O)N1CCC[C@H]1C(=O)N1CCC[C@H]1C(=O)N1CCC[C@H]1C(=O)N[C@@H](CO)C(=O)O)C(C)C` [Compound A94] (H-YSQGTFTSDYSKYLD[Aib]KRAQEFV[Aib]WLEDEPSSGAPPPS-OH; N-terminus assumed), in series [1], the EC50 was greater than 1 nM. In series [2], this molecule yielded a clearance of 16.5 mL/min/kg.
As for `CC(C)C[C@H](NC(=O)[C@H](Cc1ccc(O)cc1)NC(=O)[C@H](CCCCN)NC(=O)[C@H](CO)NC(=O)[C@H](Cc1ccc(O)cc1)NC(=O)[C@H](CC(=O)O)NC(=O)[C@H](CO)NC(=O)[C@@H](NC(=O)[C@H](Cc1ccccc1)NC(=O)[C@@H](NC(=O)CNC(=O)[C@H](CCC(N)=O)NC(=O)[C@H](CO)NC(=O)[C@@H](N)Cc1c[nH]c2ccccc12)[C@@H](C)O)[C@@H](C)O)C(=O)N[C@@H](CC(=O)O)C(=O)NC(C)(C)C(=O)N[C@@H](CCCCN)C(=O)N[C@@H](CCCNC(=N)N)C(=O)N[C@@H](C)C(=O)N[C@@H](CCC(N)=O)C(=O)N[C@@H](CCC(=O)O)C(=O)N[C@@H](Cc1ccccc1)C(=O)N[C@H](C(=O)NC(C)(C)C(=O)N[C@@H](Cc1c[nH]c2ccccc12)C(=O)N[C@@H](CC(C)C)C(=O)N[C@@H](CCC(=O)O)C(=O)N[C@@H](CC(=O)O)C(=O)N[C@@H](CCC(=O)O)C(=O)N1CCC[C@H]1C(=O)N[C@@H](CO)C(=O)N[C@@H](CO)C(=O)NCC(=O)N[C@@H](CCCCN)C(=O)N1CCC[C@H]1C(=O)N1CCC[C@H]1C(=O)N1CCC[C@H]1C(=O)N[C@@H](CO)C(=O)O)C(C)C` [Compound A91] (H-WSQGTFTSDYSKYLD[Aib]KRAQEFV[Aib]WLEDEPSSGKPPPS-OH; N-terminus assumed), the EC50 in series [1] is greater than 1 nM. Besides, the clearance in series [2] turned out to be 13.7 mL/min/kg.
